According to PMC4210194, “Cyanobacterial Light-Driven Proton Pump, Gloeobacter Rhodopsin: Complementarity between Rhodopsin-Based Energy Production and Photosynthesis” (PLoS ONE, 2014):

Tests used:
[1] = biological target: T1, Gloeobacter rhodopsin (GR, Gloeorhodopsin) (Gloeobacter violaceus, UniProt Q7NP59); test: UV/VIS absorption of purified pigment; type: binding; settings: covalent (protonated Schiff base, Lys257); 50 mM Tris pH 7, 150 mM NaCl, 0.02% DDM
T1 construct: gene gll0198

[2] = biological target: Asp121 (UniProt position 121, AYRYVDWLLTV); test: UV-vis; settings: 3-mix buffer (starting at pH ca. 12, adjusted downward with HCl); retinal-bound pigment, unphotolysed state; light or dark adaptation not stated

T1 sequence (Q7NP59 entry or part of it): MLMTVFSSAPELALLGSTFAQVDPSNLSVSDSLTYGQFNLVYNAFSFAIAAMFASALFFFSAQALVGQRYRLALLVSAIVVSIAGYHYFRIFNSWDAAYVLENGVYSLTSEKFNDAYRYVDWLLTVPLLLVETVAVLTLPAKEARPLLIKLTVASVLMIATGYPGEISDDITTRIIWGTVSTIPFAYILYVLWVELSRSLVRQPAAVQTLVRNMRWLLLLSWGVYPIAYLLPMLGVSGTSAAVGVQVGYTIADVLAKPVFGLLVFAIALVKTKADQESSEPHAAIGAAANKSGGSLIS

Row | Compound | UV/VIS absorption of purified pigment [1] | pKa [2]
1 | CC1=C(/C=C/C(C)=C/C=C/C(C)=C/C=O)C(C)(C)CCC1 [all-trans retinal] | expressed in Escherichia coli and bound all-trans retinal to form a pigment | 
2 | Gloeobacter rhodopsin (GR, Gloeorhodopsin) (Gloeobacter violaceus PCC 7421) |  | 5.9
